How the values were obtained:
PARP2 = PARP2 (Homo sapiens, UniProt Q9UGN5); test: biochemical;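 also: PARP2 enzyme ELISA on histone-coated plates, Strep-HRP detection with chemiluminescence read-out, 10 min compound preincubation with enzyme, inhibition scaled between Max and Min signal controls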
Procedure: Experimental Objective: To evaluate the inhibitory effect of the compounds of the present invention on the enzyme activities of PARP1 and PARP2 using ELISA.
• 1. histone-coated 384-well plates was prepared: 25 µL of histone solution was added to each well and incubated overnight at 4 °C. • 2. PBST buffer, blocking buffer (PBS buffer with 5% BSA and 0.05% Tween-20 added) and detection buffer (20 mM HEPES pH 7.5 + 100 mM NaCl + 2 mM DTT + 0.002% Tween-20 + 0.1% BSA) were prepared. • 3. The histone-coated 3 84-well plate was washed three times with PBST buffer, blocked at room temperature with 50 µL blocking buffer for 1 hour, and then washed three times with PBST buffer. • 4. Test compounds were prepared as 2000-fold stock solutions in DMSO. 50 nL of the stock solution was mixed with 19.95 µL detection buffer, and 5 µL of the gradient-diluted test compound was transferred to each well. • 5. Enzymatic reaction (PARP1): PARP1 & DNA mix was pre-incubated at 25 °C for 10 minutes. 10 µL of the PARP1 & DNA mix was added to each well and incubated with the test compound at room temperature for 10 minutes. […] Finally, the 384-well plate was washed three times with PBST buffer. Enzymatic reaction (PARP2): PARP2 was pre-incubated at 25 °C for 10 minutes. 10 µL of PARP2 was added to each well and incubated with the test compound at room temperature for 10 minutes. […] Finally, the 384-well plate was washed three times with PBST buffer. • 6. Detection (PARP1): 20 µL of anti-Poly/Mono-ADP Ribose Rabbit mAb was added and incubated at room temperature for 1.5 hours, followed by three washes of the 384-well plate with PBST buffer. Then, 20 µL of diluted anti-rabbit IgG, HRP-linked Antibody (diluted 1:2000 in blocking buffer) was added and incubated at room temperature for 1 hour. After washing the plate three times with PBST buffer, 25 µL of a 1:1 mixture of Femto-ECL Substrate A and Femto-ECL Substrate B was added. Detection (PARP2): 25 µL of Strep-HRP was added and incubated at room temperature for 1 hour, followed by three washes of the 384-well plate with PBS buffer. Then, 25 µL of a 1:1 mixture of Femto-ECL Substrate A and Femto-ECL Substrate B was added. • 7. Chemiluminescence intensity was measured using an Envision multimode microplate reader. • 8. Data Processing
The inhibition rate was calculated in Excel using formula (1). inh% = (Max−Signal)/(Max−Min)*100 [formula]
The IC50 value was obtained by fitting the data in XL-Fit using formula (2). Y = bottom + (top−bottom)/(1+(IC50/X)*HillSlope); [formula] wherein Y is the inhibition percentage and X is the compound concentration.

PARP1 = PARP1 (Homo sapiens, UniProt P09874); test: Inhibition of PARP1 enzyme activity (ELISA, chemiluminescence); assay type: biochemical; details: for IC50: ELISA, histone-coated plate, NAD+, 60 min at 25 °C; for Selectivity PARP2/PARP1: ratio of PARP2 IC50 to PARP1 IC50
Chain of PARP1 (P09874 whole entry): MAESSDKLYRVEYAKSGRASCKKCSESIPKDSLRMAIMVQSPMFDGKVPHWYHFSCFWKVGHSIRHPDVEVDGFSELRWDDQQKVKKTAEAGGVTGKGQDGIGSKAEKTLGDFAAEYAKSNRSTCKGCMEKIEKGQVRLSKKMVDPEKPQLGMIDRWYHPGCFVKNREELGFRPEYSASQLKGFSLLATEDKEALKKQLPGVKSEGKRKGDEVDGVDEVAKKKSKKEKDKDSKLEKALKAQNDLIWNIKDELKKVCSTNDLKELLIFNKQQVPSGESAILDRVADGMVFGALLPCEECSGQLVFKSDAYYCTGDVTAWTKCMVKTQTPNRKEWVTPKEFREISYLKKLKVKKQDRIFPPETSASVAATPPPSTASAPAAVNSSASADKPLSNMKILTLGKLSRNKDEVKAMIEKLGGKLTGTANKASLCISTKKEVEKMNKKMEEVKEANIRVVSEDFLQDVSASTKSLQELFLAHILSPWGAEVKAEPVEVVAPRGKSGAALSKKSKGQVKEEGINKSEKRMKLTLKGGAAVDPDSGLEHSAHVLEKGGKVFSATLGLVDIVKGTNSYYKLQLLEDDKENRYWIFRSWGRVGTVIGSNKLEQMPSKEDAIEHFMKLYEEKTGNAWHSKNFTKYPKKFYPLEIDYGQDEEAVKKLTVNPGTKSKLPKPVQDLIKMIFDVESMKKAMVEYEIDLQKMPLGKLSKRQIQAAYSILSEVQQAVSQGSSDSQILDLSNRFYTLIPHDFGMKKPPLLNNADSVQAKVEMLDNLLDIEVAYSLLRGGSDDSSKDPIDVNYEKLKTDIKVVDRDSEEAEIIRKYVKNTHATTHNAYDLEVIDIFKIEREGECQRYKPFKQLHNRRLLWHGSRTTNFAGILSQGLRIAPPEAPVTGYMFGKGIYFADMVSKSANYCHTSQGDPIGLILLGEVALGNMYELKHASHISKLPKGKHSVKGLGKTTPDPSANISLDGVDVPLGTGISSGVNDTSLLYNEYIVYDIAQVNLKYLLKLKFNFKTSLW

Chain of PARP2 (Q9UGN5 whole entry): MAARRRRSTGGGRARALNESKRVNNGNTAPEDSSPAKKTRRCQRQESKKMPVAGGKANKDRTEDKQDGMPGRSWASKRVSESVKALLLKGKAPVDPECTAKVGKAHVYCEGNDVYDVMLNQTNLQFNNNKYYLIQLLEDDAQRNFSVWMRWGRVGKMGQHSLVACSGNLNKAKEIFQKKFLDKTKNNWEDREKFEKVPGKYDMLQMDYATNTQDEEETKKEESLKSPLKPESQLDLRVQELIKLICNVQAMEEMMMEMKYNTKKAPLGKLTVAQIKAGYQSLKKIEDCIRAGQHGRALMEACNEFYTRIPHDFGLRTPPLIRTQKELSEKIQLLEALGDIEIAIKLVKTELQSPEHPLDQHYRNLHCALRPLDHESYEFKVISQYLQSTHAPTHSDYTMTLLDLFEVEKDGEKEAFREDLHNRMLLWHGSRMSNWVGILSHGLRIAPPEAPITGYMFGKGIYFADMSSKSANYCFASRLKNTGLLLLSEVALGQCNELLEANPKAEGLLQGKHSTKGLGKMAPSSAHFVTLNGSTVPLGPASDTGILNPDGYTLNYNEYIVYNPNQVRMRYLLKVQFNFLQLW

Structure (SMILES) | IC50 (PARP2) | IC50 (PARP1) | Selectivity PARP2/PARP1 (PARP1)
CC#Cc1cc(CN2CC=C(c3ccc(C(=O)NC)nc3)CC2)c(F)c2[nH]c(=O)c(C)nc12 [Example 50, 1'-((5-fluoro-2-methyl-3-oxo-8-(prop-1-yn-1-yl)-3,4-dihydroquinoxalin-6-yl)methyl)-N-methyl-1',2',3',6'-tetrahydro-[3,4'-bipyridine]-6-carboxamide] | > 10000 nM | 3.3 nM | >3042
CNC(=O)c1ccc(N2CCN(Cc3cc(OC(C)C(F)(F)F)c4nc(C)c(=O)[nH]c4c3)CC2)c(F)n1 (stereo not drawn) [Example 34, 6-fluoro-N-methyl-5-(4-((2-methyl-3-oxo-8-((1,1,1-trifluoropropan-2-yl)oxy)-3,4-dihydroquinoxalin-6-yl)methyl)piperazin-1-yl)picolinamide] | 1020 nM | 2.8 nM | 359.1
CNC(=O)c1ccc(C2=CCN(Cc3cc(OC(F)F)c4nc(C)c(=O)[nH]c4c3F)CC2)c(C)n1 [Example 62, 1'-((8-(difluoromethoxy)-5-fluoro-2-methyl-3-oxo-3,4-dihydroquinoxalin-6-yl)methyl)-N,2-dimethyl-1',2',3',6'-tetrahydro-[3,4'-bipyridine]-6-carboxamide] | > 10000 nM | 6.4 nM | >1554
CNC(=O)c1ccc(N2CCN(Cc3cc(C4CCCC4)c4nc(C)c(=O)[nH]c4c3)CC2)c(F)n1 [Example 31, 5-(4-((8-cyclopentyl-2-methyl-3-oxo-3,4-dihydroquinoxalin-6-yl)methyl)piperazin-1-yl)-6-fluoro-N-methylpicolinamide] | 45.4 nM | 2.5 nM | 18.4
CNC(=O)c1ccc(N2CCN(Cc3cc(OC(F)(F)F)c4nc(C)c(=O)[nH]c4c3)CC2)c(F)n1 [Example 17, 6-fluoro-N-methyl-5-(4-((2-methyl-3-oxo-8-(trifluoromethoxy)-3,4-dihydroquinoxalin-6-yl)methyl)piperazin-1-yl)picolinamide] | 169 nM | 3.6 nM | 46.9
CC#Cc1cc(CN2CC=C(c3ccc(C(=O)NC4CC4)nc3)CC2)c(F)c2[nH]c(=O)c(C)nc12 [Example 67, N-cyclopropyl-1'-((5-fluoro-2-methyl-3-oxo-8-(prop-1-yn-1-yl)-3,4-dihydroquinoxalin-6-yl)methyl)-1',2',3',6'-tetrahydro-[3,4'-bipyridine]-6-carboxamide] | > 10000 nM | 6.9 nM | >1444
CNC(=O)c1ccc(N2CCN(Cc3cc(Oc4ccccc4F)c4nc(C)c(=O)[nH]c4c3)CC2)c(F)n1 [Example 27, 6-fluoro-5-(4-((8-(2-fluorophenoxy)-2-methyl-3-oxo-3,4-dihydroquinoxalin-6-yl)methyl)piperazin-1-yl)-N-methylpicolinamide] | 626 nM | 2.2 nM | 278.9
CC#Cc1cc(CN2CCN(c3ccc(OC(F)F)nc3)CC2)cc2[nH]c(=O)c(C)nc12 [Example 37, 7-((4-(6-(difluoromethoxy)pyridin-3-yl)piperazin-1-yl)methyl)-3-methyl-5-(prop-1-yn-1-yl)quinoxalin-2(1H)-one] | 1910 nM | 12.9 nM | 148.2
CC#Cc1cc(CN2CC=C(c3ccc(C(=O)NC)nc3F)CC2)c(F)c2[nH]c(=O)c(C)nc12 [Example 23, 2-fluoro-1'-((5-fluoro-2-methyl-3-oxo-8-(prop-1-yn-1-yl)-3,4-dihydroquinoxalin-6-yl)methyl)-N-methyl-1',2',3',6'-tetrahydro-[3,4'-bipyridine]-6-carboxamide] | > 10000 nM | 2.4 nM | 4113.1
CNC(=O)c1ccc(N2CCN(Cc3cc(Oc4ccncc4)c4nc(C)c(=O)[nH]c4c3)CC2)c(F)n1 [Example 29, 6-fluoro-N-methyl-5-(4-((2-methyl-3-oxo-8-(pyridin-4-yloxy)-3,4-dihydroquinoxalin-6-yl)methyl)piperazin-1-yl)picolinamide] | 2500 nM | 11.5 nM | 217.3

From patent EP4755880A1, “SUBSTITUTED NITROGEN-CONTAINING BICYCLIC COMPOUND AND USE THEREOF” (Sunshine Lake Pharma Co., Ltd., priority 2023, dated 2025)
